The record followed here is patent US20020137774A1, “Carboxyaryl substituted diphenyl ureas as raf kinase inhibitors” (BAYER CORPORATION, priority 1999, published 2002).

For orientation: melting point means the temperature of the solid-liquid transition.

The structures appear in SMILES notation.

For `COC(=O)c1ccc(Oc2ccc(NC(=O)Nc3ccc(Cl)c(C(F)(F)F)c3)cc2)cn1` [Entry 55, N-(4-chloro-3-(trifluoromethyl)phenyl)-N′-(4-(2-(methoxycarbonyl)-5-pyridyloxy)phenyl) urea], the melting point is 228 to 230 °C.
